# ChEMBL document CHEMBL5649169 (ChemMedChem, 2018)
# Key:
# [1] = target: Serine/threonine-protein kinase TAO2 (Homo sapiens) (UniProt Q9UL54); note: assay method not described here
# [2] = target: Rab-like protein 3 (Homo sapiens) (UniProt Q5HYI8); note: assay method not described here
# [3] = target: Calreticulin (Homo sapiens) (UniProt P27797); note: assay method not described here
# [4] = target: Protein MON2 homolog (Homo sapiens) (UniProt Q7Z3U7); note: assay method not described here
# [5] = target: Transcriptional repressor p66-alpha (Homo sapiens) (UniProt Q86YP4); note: assay method not described here
# [6] = target: Acetyl-CoA carboxylase 1 (Homo sapiens) (UniProt Q13085); note: assay method not described here
# [7] = target: CDGSH iron-sulfur domain-containing protein 2 (Homo sapiens) (UniProt Q8N5K1); note: assay method not described here
# [8] = target: Ceroid-lipofuscinosis neuronal protein 6 (Homo sapiens) (UniProt Q9NWW5); note: assay method not described here
# [9] = target: 14-3-3 protein eta (Homo sapiens) (UniProt Q04917); note: assay method not described here
# [10] = target: Discoidin domain-containing receptor 2 (Homo sapiens) (UniProt Q16832); note: assay method not described here
# [11] = target: Holocytochrome c-type synthase (Homo sapiens) (UniProt P53701); note: assay method not described here
# [12] = target: Synaptophysin-like protein 1 (Homo sapiens) (UniProt Q16563); note: assay method not described here
# [13] = target: Importin-8 (Homo sapiens) (UniProt O15397); note: assay method not described here
# [14] = target: Dipeptidyl peptidase 2 (Homo sapiens) (UniProt Q9UHL4); note: assay method not described here
# [15] = target: Surfeit locus protein 4 (Homo sapiens) (UniProt O15260); note: assay method not described here
# [16] = target: AP-1 complex subunit gamma-1 (Homo sapiens) (UniProt O43747); note: assay method not described here
# [17] = target: Heme oxygenase 2 (Homo sapiens) (UniProt P30519); note: assay method not described here
# [18] = target: Inhibitor of nuclear factor kappa-B kinase subunit epsilon (Homo sapiens) (UniProt Q14164); note: assay method not described here
# [19] = target: Actin-related protein 2/3 complex subunit 4 (Homo sapiens) (UniProt P59998); note: assay method not described here
# [20] = target: Proliferation marker protein Ki-67 (Homo sapiens) (UniProt P46013); note: assay method not described here
# [21] = target: Heterogeneous nuclear ribonucleoprotein L (Homo sapiens) (UniProt P14866); note: assay method not described here
# [22] = target: Nucleoside diphosphate kinase A (Homo sapiens) (UniProt P15531); note: assay method not described here
# [23] = target: Band 4.1-like protein 2 (Homo sapiens) (UniProt O43491); note: assay method not described here
# Ephrin type-A receptor 8 = Ephrin type-A receptor 8 (Homo sapiens, UniProt P29322); test: Inhibition of Nano Luc-fused full length C-terminal EPHA8 (unknown origin) expressed in HEK293T cells using NanoGlo as substrate incubated for 2 hrs in presence of tracer by NanoBRET assay; format: cell-based
# [24] = target: AP-2 complex subunit beta (Homo sapiens) (UniProt P63010); note: assay method not described here
# [25] = target: Golgi apparatus protein 1 (Homo sapiens) (UniProt Q92896); note: assay method not described here
# [26] = target: Mitogen-activated protein kinase 1 (Homo sapiens) (UniProt P28482); note: assay method not described here
# [27] = target: Large ribosomal subunit protein uL1 (Homo sapiens) (UniProt P62906)
# [28] = target: Mitochondrial 2-oxoglutarate/malate carrier protein (Homo sapiens) (UniProt Q02978); note: assay method not described here
# [29] = target: AP-3 complex subunit beta-1 (Homo sapiens) (UniProt O00203); note: assay method not described here
# [30] = target: KH domain-containing, RNA-binding, signal transduction-associated protein 1 (Homo sapiens) (UniProt Q07666); note: assay method not described here
# [31] = target: Large ribosomal subunit protein uL18 (Homo sapiens) (UniProt P46777); note: assay method not described here
# [32] = target: Ras-related protein Rab-5C (Homo sapiens) (UniProt P51148); note: assay method not described here
# [33] = target: Tubulin alpha-1B chain (Homo sapiens) (UniProt P68363); note: assay method not described here
# [34] = target: Peptidyl-prolyl cis-trans isomerase FKBP1A (Homo sapiens) (UniProt P62942); note: assay method not described here
# [35] = target: Eukaryotic translation initiation factor 3 subunit I (Homo sapiens) (UniProt Q13347); note: assay method not described here
# [36] = target: Non-selective voltage-gated ion channel VDAC3 (Homo sapiens) (UniProt Q9Y277); note: assay method not described here
# [37] = target: Proto-oncogene tyrosine-protein kinase receptor Ret (Homo sapiens) (UniProt P07949); note: assay method not described here
# [38] = target: Tripeptidyl-peptidase 1 (Homo sapiens) (UniProt O14773); note: assay method not described here
# [39] = target: Phosphoprotein associated with glycosphingolipid-enriched microdomains 1 (Homo sapiens) (UniProt Q9NWQ8); note: assay method not described here
# [40] = target: Translation initiation factor eIF2B subunit gamma (Homo sapiens) (UniProt Q9NR50); note: assay method not described here
# [41] = target: 5-azacytidine-induced protein 2 (Homo sapiens) (UniProt Q9H6S1); note: assay method not described here
# [42] = target: Nuclear mitotic apparatus protein 1 (Homo sapiens) (UniProt Q14980); note: assay method not described here
# [43] = target: AP-2 complex subunit mu (Homo sapiens) (UniProt Q96CW1); note: assay method not described here
# [44] = target: Heterogeneous nuclear ribonucleoproteins A2/B1 (Homo sapiens) (UniProt P22626); note: assay method not described here
# Throughout, for ED50: assay method not described here.
# Sequence of Peptidyl-prolyl cis-trans isomerase FKBP1A (Homo sapiens) (P62942 whole entry): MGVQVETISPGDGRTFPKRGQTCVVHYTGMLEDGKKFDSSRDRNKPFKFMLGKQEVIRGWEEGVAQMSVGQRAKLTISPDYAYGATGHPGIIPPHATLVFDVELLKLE
# Sequence of Serine/threonine-protein kinase TAO2 (Homo sapiens) (Q9UL54 whole entry): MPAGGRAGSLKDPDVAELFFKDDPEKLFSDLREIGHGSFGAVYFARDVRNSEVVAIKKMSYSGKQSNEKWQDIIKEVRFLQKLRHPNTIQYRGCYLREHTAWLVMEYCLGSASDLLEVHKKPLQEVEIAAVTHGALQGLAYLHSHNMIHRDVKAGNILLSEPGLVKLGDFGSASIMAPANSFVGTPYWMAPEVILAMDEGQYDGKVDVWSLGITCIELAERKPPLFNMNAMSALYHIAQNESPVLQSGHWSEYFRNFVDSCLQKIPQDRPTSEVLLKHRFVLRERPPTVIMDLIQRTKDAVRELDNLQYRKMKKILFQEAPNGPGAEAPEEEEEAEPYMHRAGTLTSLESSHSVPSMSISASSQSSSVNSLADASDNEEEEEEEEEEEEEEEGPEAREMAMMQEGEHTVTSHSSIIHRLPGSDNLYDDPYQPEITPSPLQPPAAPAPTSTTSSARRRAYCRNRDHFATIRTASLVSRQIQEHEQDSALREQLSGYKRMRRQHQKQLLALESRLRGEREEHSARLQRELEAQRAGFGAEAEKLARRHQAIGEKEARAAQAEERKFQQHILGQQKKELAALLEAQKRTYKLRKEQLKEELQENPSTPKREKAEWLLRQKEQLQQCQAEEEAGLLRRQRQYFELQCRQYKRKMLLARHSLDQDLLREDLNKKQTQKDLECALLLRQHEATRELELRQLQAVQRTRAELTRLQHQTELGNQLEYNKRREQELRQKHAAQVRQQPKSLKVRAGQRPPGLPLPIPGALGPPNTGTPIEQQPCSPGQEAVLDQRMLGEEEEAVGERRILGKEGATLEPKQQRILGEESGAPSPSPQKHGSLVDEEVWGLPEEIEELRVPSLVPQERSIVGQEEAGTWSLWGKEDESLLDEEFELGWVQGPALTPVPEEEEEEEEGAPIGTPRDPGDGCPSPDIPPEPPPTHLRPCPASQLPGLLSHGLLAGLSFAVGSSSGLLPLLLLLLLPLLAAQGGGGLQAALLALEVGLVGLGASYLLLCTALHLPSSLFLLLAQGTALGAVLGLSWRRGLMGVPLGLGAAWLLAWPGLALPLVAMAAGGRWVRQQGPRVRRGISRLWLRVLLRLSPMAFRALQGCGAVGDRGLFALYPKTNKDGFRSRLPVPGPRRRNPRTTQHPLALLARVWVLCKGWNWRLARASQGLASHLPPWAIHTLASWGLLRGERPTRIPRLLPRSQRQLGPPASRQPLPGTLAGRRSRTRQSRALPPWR
# Sequence of Non-selective voltage-gated ion channel VDAC3 (Homo sapiens) (Q9Y277 whole entry): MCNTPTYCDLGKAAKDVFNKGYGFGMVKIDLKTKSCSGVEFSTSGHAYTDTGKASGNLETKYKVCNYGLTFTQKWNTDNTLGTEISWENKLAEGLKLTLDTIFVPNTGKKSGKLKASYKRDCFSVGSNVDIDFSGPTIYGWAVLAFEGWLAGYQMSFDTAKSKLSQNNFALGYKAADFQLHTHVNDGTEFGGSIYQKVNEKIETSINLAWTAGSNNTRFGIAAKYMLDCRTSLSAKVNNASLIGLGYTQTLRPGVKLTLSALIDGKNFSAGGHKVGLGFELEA
# Sequence of Inhibitor of nuclear factor kappa-B kinase subunit epsilon (Homo sapiens) (Q14164 whole entry): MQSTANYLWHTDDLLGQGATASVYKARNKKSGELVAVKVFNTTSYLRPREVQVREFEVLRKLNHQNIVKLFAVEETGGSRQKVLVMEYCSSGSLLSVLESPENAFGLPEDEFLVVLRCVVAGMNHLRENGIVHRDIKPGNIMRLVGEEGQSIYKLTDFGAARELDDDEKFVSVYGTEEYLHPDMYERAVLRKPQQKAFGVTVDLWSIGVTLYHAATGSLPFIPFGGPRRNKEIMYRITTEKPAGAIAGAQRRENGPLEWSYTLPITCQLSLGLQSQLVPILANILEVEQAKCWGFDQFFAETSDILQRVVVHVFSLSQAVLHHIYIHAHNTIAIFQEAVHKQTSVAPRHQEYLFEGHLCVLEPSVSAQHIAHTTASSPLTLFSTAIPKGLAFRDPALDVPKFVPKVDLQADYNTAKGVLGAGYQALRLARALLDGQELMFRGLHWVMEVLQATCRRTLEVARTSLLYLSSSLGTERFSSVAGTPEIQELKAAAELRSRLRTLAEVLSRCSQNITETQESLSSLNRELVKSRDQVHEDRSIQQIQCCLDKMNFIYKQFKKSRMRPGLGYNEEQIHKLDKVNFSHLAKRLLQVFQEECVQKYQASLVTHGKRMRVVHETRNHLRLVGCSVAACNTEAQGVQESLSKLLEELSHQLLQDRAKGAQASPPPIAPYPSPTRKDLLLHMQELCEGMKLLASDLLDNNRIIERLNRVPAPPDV
# Sequence of AP-3 complex subunit beta-1 (Homo sapiens) (O00203 whole entry, the tested form may be a part, one chain of several): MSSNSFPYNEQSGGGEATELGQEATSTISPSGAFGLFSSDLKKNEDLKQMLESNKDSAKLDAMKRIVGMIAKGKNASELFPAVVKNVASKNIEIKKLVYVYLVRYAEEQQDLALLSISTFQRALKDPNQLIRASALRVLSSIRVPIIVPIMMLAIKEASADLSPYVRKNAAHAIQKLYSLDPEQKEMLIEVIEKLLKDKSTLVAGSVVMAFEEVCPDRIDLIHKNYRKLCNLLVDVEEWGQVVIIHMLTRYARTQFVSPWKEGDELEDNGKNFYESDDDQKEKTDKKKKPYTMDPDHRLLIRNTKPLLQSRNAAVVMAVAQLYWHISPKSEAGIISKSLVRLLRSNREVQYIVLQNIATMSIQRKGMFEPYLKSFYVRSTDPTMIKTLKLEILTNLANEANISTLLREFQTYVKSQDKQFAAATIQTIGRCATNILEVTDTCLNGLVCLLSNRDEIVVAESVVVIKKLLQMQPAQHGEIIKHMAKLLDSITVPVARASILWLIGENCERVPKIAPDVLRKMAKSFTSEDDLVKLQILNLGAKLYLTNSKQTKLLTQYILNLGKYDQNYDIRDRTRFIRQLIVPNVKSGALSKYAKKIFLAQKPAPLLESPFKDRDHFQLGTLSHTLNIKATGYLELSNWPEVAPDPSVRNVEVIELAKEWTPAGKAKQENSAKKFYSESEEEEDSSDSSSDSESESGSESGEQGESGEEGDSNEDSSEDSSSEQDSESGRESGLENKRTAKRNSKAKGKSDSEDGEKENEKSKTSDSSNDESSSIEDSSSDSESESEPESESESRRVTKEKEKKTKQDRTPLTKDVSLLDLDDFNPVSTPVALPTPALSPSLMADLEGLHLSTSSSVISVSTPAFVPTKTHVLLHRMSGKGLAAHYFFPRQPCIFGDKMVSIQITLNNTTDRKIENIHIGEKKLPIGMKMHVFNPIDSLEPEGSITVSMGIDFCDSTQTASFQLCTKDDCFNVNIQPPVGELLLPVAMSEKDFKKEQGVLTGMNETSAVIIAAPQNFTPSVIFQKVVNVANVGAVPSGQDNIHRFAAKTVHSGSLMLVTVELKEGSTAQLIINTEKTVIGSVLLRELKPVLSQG
# Sequence of Calreticulin (Homo sapiens) (P27797 whole entry): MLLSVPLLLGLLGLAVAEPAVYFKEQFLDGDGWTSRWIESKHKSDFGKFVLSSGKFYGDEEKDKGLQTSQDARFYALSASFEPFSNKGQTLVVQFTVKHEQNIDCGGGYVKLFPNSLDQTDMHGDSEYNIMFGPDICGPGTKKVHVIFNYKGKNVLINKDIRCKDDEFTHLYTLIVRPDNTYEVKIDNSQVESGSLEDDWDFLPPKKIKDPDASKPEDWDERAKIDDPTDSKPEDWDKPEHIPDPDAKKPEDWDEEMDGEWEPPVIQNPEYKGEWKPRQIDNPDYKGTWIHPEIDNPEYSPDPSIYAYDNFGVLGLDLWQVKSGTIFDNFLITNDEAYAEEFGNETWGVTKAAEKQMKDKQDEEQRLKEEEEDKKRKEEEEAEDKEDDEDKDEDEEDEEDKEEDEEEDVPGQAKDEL
# Sequence of Proto-oncogene tyrosine-protein kinase receptor Ret (Homo sapiens) (P07949 whole entry): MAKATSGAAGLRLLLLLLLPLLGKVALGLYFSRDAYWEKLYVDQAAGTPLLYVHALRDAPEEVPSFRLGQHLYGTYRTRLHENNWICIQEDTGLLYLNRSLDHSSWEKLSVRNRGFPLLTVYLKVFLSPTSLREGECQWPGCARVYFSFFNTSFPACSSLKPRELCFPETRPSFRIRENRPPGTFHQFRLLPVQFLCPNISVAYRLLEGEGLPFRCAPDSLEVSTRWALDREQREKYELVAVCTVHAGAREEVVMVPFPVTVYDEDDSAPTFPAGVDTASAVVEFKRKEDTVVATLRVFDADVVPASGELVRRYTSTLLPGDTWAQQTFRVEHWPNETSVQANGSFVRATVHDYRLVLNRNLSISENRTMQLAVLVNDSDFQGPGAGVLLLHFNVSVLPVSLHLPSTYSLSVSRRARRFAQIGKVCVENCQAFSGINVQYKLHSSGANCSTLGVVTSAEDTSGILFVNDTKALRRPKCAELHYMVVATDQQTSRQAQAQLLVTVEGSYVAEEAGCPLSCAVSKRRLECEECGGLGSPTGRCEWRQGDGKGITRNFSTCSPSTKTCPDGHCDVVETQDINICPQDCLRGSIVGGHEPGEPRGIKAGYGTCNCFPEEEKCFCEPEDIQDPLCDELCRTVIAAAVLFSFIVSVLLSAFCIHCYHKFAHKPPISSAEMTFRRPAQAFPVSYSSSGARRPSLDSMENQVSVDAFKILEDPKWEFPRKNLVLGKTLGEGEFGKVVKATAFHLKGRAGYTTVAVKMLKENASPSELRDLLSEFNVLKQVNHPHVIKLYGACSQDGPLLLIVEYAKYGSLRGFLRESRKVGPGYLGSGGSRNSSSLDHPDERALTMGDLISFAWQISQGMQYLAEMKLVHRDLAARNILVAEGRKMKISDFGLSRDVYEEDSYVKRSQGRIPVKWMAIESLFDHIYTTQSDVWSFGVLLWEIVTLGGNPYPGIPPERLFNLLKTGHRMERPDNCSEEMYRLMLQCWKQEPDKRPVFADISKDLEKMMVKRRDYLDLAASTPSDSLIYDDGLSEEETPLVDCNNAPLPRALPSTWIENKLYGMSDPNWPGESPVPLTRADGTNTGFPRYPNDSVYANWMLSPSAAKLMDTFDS
smiles,measurement,setting,value
Cc1ccc(C(=O)Nc2cccc(C(F)(F)F)c2)cc1Nc1nc(-c2cccnc2)nc2nn(C)cc12,ED50,[1],4.27 µM
same,ED50,[2],22.5 µM
same,ED50,[3],24.5 µM
same,ED50,[4],0.191 µM
same,ED50,[5],0.041 µM
same,ED50,[6],0.0486 µM
same,ED50,[7],0.0591 µM
same,ED50,[8],1910 µM
same,ED50,[9],0.103 µM
same,ED50,[10],0.387 µM
same,ED50,[11],0.144 µM
same,ED50,[12],0.0536 µM
same,ED50,[13],25.8 µM
same,ED50,[14],0.504 µM
same,ED50,[15],0.0151 µM
same,ED50,[16],1.37 µM
same,ED50,[17],0.02 µM
same,ED50,[18],9.31 µM
same,ED50,[19],15.8 µM
same,ED50,[20],0.0399 µM
same,ED50,[21],0.042 µM
same,ED50,[22],2.02 µM
same,ED50,[23],0.338 µM
same,IC50,Ephrin type-A receptor 8,0.21 µM
same,ED50,[24],0.331 µM
same,ED50,[25],0.162 µM
same,ED50,[26],0.0471 µM
same,ED50,[27],8.92 µM
same,ED50,[28],0.00199 µM
same,ED50,[29],0.049 µM
same,ED50,[30],9.62 µM
same,ED50,[31],11.5 µM
same,ED50,[32],13.9 µM
same,ED50,[33],3.87 µM
same,ED50,[34],0.00568 µM
same,ED50,[35],35.5 µM
same,ED50,[36],0.0233 µM
same,ED50,[37],0.0063 µM
same,ED50,[38],5310 µM
same,ED50,[39],1.77 µM
same,ED50,[40],0.332 µM
same,ED50,[41],6.47 µM
same,ED50,[42],0.0318 µM
same,ED50,[43],211 µM
same,ED50,[44],0.0115 µM
same,ED50,Homo sapiens,14.7 µM
Cc1ccc(C(=O)Nc2cccc(C(F)(F)F)c2)cc1Nc1nc(-c2cccnc2)nc2c1cnn2C,ED50,[1],23.9 µM
same,ED50,[2],4.04 µM
same,ED50,[3],24.3 µM
same,ED50,[4],0.00382 µM
same,ED50,[5],3.46 µM
same,ED50,[6],16.4 µM
same,ED50,[7],3.1 µM
same,ED50,[8],12.5 µM
same,ED50,[9],0.0217 µM
same,ED50,[10],0.542 µM
same,ED50,[11],0.0888 µM
same,ED50,[12],6.43 µM
same,ED50,[13],49.5 µM
same,ED50,[14],0.00529 µM
same,ED50,[15],0.017 µM
same,ED50,[16],0.163 µM
same,ED50,[17],4.08 µM
same,ED50,[18],0.123 µM
same,ED50,[19],18.9 µM
same,ED50,[20],4.64 µM
same,ED50,[21],16.4 µM
same,ED50,[22],7.65 µM
same,ED50,[23],0.00541 µM
same,IC50,Ephrin type-A receptor 8,0.0012 µM
same,ED50,[24],11.9 µM
same,ED50,[25],6.56 µM
same,ED50,[26],0.027 µM
same,ED50,[27],0.577 µM
same,ED50,[28],0.0531 µM
same,ED50,[29],0.558 µM
same,ED50,[30],0.118 µM
same,ED50,[31],0.862 µM
same,ED50,[32],19.2 µM
same,ED50,[33],1.73 µM
same,ED50,[34],94 µM
same,ED50,[35],0.108 µM
same,ED50,[36],0.745 µM
same,ED50,[37],5.11 µM
same,ED50,[38],3.39 µM
same,ED50,[39],16.8 µM
same,ED50,[40],10.3 µM
same,ED50,[41],0.0383 µM
same,ED50,[42],0.000308 µM
same,ED50,[43],5.13 µM
same,ED50,[44],0.0823 µM
same,ED50,Homo sapiens,106 µM
